Data published in patent publication US20250230193A1, “CYCLIC COMPOUND HAVING SELECTIVE KRAS INHIBITORY EFFECT ON HRAS AND NRAS” (CHUGAI SEIYAKU KABUSHIKI KAISHA, priority 2022, published 2025).

How the values were obtained:
[1] = biological target: GDP-bound NRAS wild-type protein (Homo sapiens, UniProt P01111); experiment: Binding to NRAS by surface plasmon resonance (SPR), Single Cycle Kinetics; conditions: KD ratio, GDP-bound NRAS wild-type vs GDP-bound KRAS wild-type, SPR
[2] = biological target: GDP-bound HRAS wild-type protein (Homo sapiens, UniProt P01112); experiment: Binding to HRAS by surface plasmon resonance (SPR), Single Cycle Kinetics; conditions: KD ratio, GDP-bound HRAS wild-type vs GDP-bound KRAS wild-type, SPR
Chain of GDP-bound HRAS wild-type protein (P01112 whole entry): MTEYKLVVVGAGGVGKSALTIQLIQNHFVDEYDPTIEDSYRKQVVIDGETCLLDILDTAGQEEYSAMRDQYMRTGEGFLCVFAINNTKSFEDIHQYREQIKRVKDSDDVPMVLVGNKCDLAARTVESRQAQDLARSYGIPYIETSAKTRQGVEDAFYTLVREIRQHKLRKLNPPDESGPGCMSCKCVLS

Chain of GDP-bound NRAS wild-type protein (P01111 whole entry): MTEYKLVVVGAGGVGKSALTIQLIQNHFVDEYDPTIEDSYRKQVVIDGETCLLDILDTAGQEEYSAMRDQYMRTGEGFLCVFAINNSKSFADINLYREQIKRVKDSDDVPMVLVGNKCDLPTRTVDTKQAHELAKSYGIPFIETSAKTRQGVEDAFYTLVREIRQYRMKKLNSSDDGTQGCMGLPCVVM

Structure (SMILES)	NRAS/KRAS (ratio of KD value for NRAS to KD value for KRAS) [1]	HRAS/KRAS (ratio of KD value for HRAS to KD value for KRAS) [2]
CC[C@H](C)[C@@H]1NC(=O)[C@H](CC(C)C)N(C)C(=O)C[C@@H](C(=O)N(C)C)N(C)C(=O)[C@H](C2CCCC2)N(C)C(=O)C2(CC(C)(C)C2)NC(=O)[C@@H]2C[C@H](C)CN2C(=O)[C@H](CCc2cc(F)c(C(F)(F)F)c(F)c2)NC(=O)CN(C)C(=O)[C@H](Cc2ccc(C(F)(F)F)cc2)N2CC/C=C\C[C@@H](C2=O)N(C)C(=O)CN(C)C1=O [PP1662]	A (a compound having 10 or more and less than 20 is denoted as A)	B (a compound having 3 or more and less than 10 is denoted as B)
CCCN(C)C(=O)[C@@H]1CC(=O)N(C)[C@@H](C)C(=O)N[C@@H]([C@@H](C)CC)C(=O)N(C)CC(=O)N(C)[C@H]2C/C=C\CCN(C2=O)[C@@H](Cc2ccc(C(F)(F)F)cc2)C(=O)N(C)CC(=O)N[C@@H](CCc2cc(F)c(C(F)(F)F)c(F)c2)C(=O)N2C[C@H](F)C[C@H]2C(=O)NC2(CC(C)(C)C2)C(=O)N(C)[C@@H](C2CCCC2)C(=O)N1C [PP1663]	AA (a compound having 20 or more is denoted as AA)	A (a compound having 10 or more and less than 20 is denoted as A)
CCCN(C)C(=O)[C@@H]1CC(=O)N(C)[C@@H](CC2CC2)C(=O)N[C@@H]([C@@H](C)CC)C(=O)N(C)CC(=O)N(C)[C@H]2C/C=C\CCN(C2=O)[C@@H](Cc2ccc(C(F)(F)F)cc2)C(=O)N(C)CC(=O)N[C@@H](CCc2cc(F)c(C(F)(F)F)c(F)c2)C(=O)N2C[C@H](F)C[C@H]2C(=O)NC2(CC(C)(C)C2)C(=O)N(C)[C@@H](C2CCCC2)C(=O)N1C [PP1665]	AA (a compound having 20 or more is denoted as AA)	A (a compound having 10 or more and less than 20 is denoted as A)
CCCN(C)C(=O)[C@@H]1CC(=O)N(C)[C@@H](C)C(=O)N[C@@H]([C@@H](C)CC)C(=O)N(C)CC(=O)N(C)[C@H]2C/C=C\CCN(C2=O)[C@@H](Cc2ccc(C(F)(F)F)cc2)C(=O)N(C)CC(=O)N[C@@H](CCc2cc(F)c(C(F)(F)F)c(F)c2)C(=O)N2C[C@H](OCC)C[C@H]2C(=O)NC2(CCC2)C(=O)N(C)[C@@H](C2CCCC2)C(=O)N1C [PP1666]	A (a compound having 10 or more and less than 20 is denoted as A)	A (a compound having 10 or more and less than 20 is denoted as A)
CCO[C@@H]1C[C@H]2C(=O)NC3(CCC3)C(=O)N(C)[C@@H](C3CCCC3)C(=O)N(C)[C@H](C(=O)N(C)CC)CC(=O)N(C)[C@@H](CC3CCC3)C(=O)N[C@@H]([C@@H](C)CC)C(=O)N(C)CC(=O)N(C)[C@H]3C/C=C\CCN(C3=O)[C@@H](Cc3ccc(C(F)(F)F)cc3)C(=O)N(C)CC(=O)N[C@@H](CCc3cc(F)c(C(F)(F)F)c(F)c3)C(=O)N2C1 [PP1667]	A (a compound having 10 or more and less than 20 is denoted as A)	A (a compound having 10 or more and less than 20 is denoted as A)
CCCOC[C@H]1C(=O)N[C@@H]([C@@H](C)CC)C(=O)N(C)CC(=O)N(C)[C@H]2C/C=C\CCN(C2=O)[C@@H](Cc2ccc(C(F)(F)F)cc2)C(=O)N(C)CC(=O)N[C@@H](CCc2cc(F)c(C(F)(F)F)c(F)c2)C(=O)N2C[C@H](OCC)C[C@H]2C(=O)NC2(CCC2)C(=O)N(C)[C@@H](C2CCCC2)C(=O)N(C)[C@H](C(=O)N(C)CCC)CC(=O)N1C [PP1668]	A (a compound having 10 or more and less than 20 is denoted as A)	A (a compound having 10 or more and less than 20 is denoted as A)
CCCN(C)C(=O)[C@@H]1CC(=O)N(C)[C@@H](CC)C(=O)N[C@@H]([C@@H](C)CC)C(=O)N(C)CC(=O)N(C)[C@H]2C/C=C\CCN(C2=O)[C@@H](Cc2ccc(C(F)(F)F)cc2)C(=O)N(C)CC(=O)N[C@@H](CCc2cc(F)c(C(F)(F)F)c(F)c2)C(=O)N2C[C@H](OCC)C[C@H]2C(=O)NC2(CC(C)(C)C2)C(=O)N(C)[C@@H](C2CCCC2)C(=O)N1C [PP1670]	A (a compound having 10 or more and less than 20 is denoted as A)	A (a compound having 10 or more and less than 20 is denoted as A)
CCO[C@@H]1C[C@H]2C(=O)NC3(CC(C)(C)C3)C(=O)N(C)[C@@H](C3CCCC3)C(=O)N(C)[C@H](C(=O)N(C)CC)CC(=O)N(C)[C@@H](COC)C(=O)N[C@@H]([C@@H](C)CC)C(=O)N(C)CC(=O)N(C)[C@H]3C/C=C\CCN(C3=O)[C@@H](Cc3ccc(C(F)(F)F)cc3)C(=O)N(C)CC(=O)N[C@@H](CCc3cc(F)c(C(F)(F)F)c(F)c3)C(=O)N2C1 [PP1671]	A (a compound having 10 or more and less than 20 is denoted as A)	A (a compound having 10 or more and less than 20 is denoted as A)
CCCN(C)C(=O)[C@@H]1CC(=O)N(C)[C@@H](COC)C(=O)N[C@@H]([C@@H](C)CC)C(=O)N(C)CC(=O)N(C)[C@H]2C/C=C\CCN(C2=O)[C@@H](Cc2ccc(C(F)(F)F)cc2)C(=O)N(C)CC(=O)N[C@@H](CCc2cc(F)c(C(F)(F)F)c(F)c2)C(=O)N2C[C@H](OCC)C[C@H]2C(=O)NC2(CC(C)(C)C2)C(=O)N(C)[C@@H](C2CCCC2)C(=O)N1C [PP1672]	A (a compound having 10 or more and less than 20 is denoted as A)	A (a compound having 10 or more and less than 20 is denoted as A)
CCCOC[C@H]1C(=O)N[C@@H]([C@@H](C)CC)C(=O)N(C)CC(=O)N(C)[C@H]2C/C=C\CCN(C2=O)[C@@H](Cc2ccc(C(F)(F)F)cc2)C(=O)N(C)CC(=O)N[C@@H](CCc2cc(F)c(C(F)(F)F)c(F)c2)C(=O)N2C[C@H](OCC)C[C@H]2C(=O)NC2(CC(C)(C)C2)C(=O)N(C)[C@@H](C2CCCC2)C(=O)N(C)[C@H](C(=O)N(C)CCC)CC(=O)N1C [PP1673]	A (a compound having 10 or more and less than 20 is denoted as A)	A (a compound having 10 or more and less than 20 is denoted as A)
CCO[C@@H]1C[C@H]2C(=O)NC3(CC(C)(C)C3)C(=O)N(C)[C@@H](C3CCCC3)C(=O)N(C)[C@H](C(=O)N(C)C)CC(=O)N(C)[C@@H](C)C(=O)N[C@@H]([C@@H](C)CC)C(=O)N(C)CC(=O)N(C)[C@H]3C/C=C\CCN(C3=O)[C@@H](Cc3ccc(C(F)(F)F)cc3)C(=O)N(C)CC(=O)N[C@@H](CCc3ccc(C(F)(F)F)c(OC)c3)C(=O)N2C1 [PP1674]	A (a compound having 10 or more and less than 20 is denoted as A)	A (a compound having 10 or more and less than 20 is denoted as A)
CCO[C@@H]1C[C@H]2C(=O)NC3(CC(C)(C)C3)C(=O)N(C)[C@@H](C3CCCC3)C(=O)N(C)[C@H](C(=O)N(C)C)CC(=O)N(C)[C@@H](CC(F)(F)F)C(=O)N[C@@H]([C@@H](C)CC)C(=O)N(C)CC(=O)N(C)[C@H]3C/C=C\CCN(C3=O)[C@@H](Cc3ccc(C(F)(F)F)cc3)C(=O)N(C)CC(=O)N[C@@H](CCc3ccc(C(F)(F)F)c(OC)c3)C(=O)N2C1 [PP1675]	A (a compound having 10 or more and less than 20 is denoted as A)	B (a compound having 3 or more and less than 10 is denoted as B)
CCO[C@@H]1C[C@H]2C(=O)NC3(CC(C)(C)C3)C(=O)N(C)[C@@H](C3CCCC3)C(=O)N(C)[C@H](C(=O)N(C)CC)CC(=O)N(C)[C@@H](COC)C(=O)N[C@@H]([C@@H](C)CC)C(=O)N(C)CC(=O)N(C)[C@H]3C/C=C\CCN(C3=O)[C@@H](Cc3ccc(C(F)(F)F)cc3)C(=O)N(C)CC(=O)N[C@@H](CCc3ccc(C(F)(F)F)c(OC)c3)C(=O)N2C1 [PP1679]	A (a compound having 10 or more and less than 20 is denoted as A)	A (a compound having 10 or more and less than 20 is denoted as A)
CC[C@H](C)[C@@H]1NC(=O)[C@H](CC(F)(F)F)N(C)C(=O)C[C@@H](C(=O)N(C)C)N(C)C(=O)[C@H](C2CCCC2)N(C)C(=O)C2(CC(C)(C)C2)NC(=O)[C@@H]2C[C@H](C)CN2C(=O)[C@H](CCc2cc(F)c(C(F)(F)F)c(F)c2)NC(=O)CN(C)C(=O)[C@H](Cc2ccc(C(F)(F)F)cc2)N2CC/C=C\C[C@@H](C2=O)N(C)C(=O)CN(C)C1=O [PP1682]	AA (a compound having 20 or more is denoted as AA)	A (a compound having 10 or more and less than 20 is denoted as A)
CCC[C@H]1C(=O)N[C@@H]([C@@H](C)CC)C(=O)N(C)CC(=O)N(C)[C@H]2C/C=C\CCN(C2=O)[C@@H](Cc2ccc(C(F)(F)F)cc2)C(=O)N(C)CC(=O)N[C@@H](CCc2cc(F)c(C(F)(F)F)c(F)c2)C(=O)N2C[C@@H](C)C[C@H]2C(=O)NC2(CC(C)(C)C2)C(=O)N(C)[C@@H](C2CCCC2)C(=O)N(C)[C@H](C(=O)N(C)C)CC(=O)N1C [PP1683]	A (a compound having 10 or more and less than 20 is denoted as A)	A (a compound having 10 or more and less than 20 is denoted as A)
CC[C@H](C)[C@@H]1NC(=O)[C@H](CC2CCC2)N(C)C(=O)C[C@@H](C(=O)N(C)C)N(C)C(=O)[C@H](C2CCCC2)N(C)C(=O)C2(CC(C)(C)C2)NC(=O)[C@@H]2C[C@H](C)CN2C(=O)[C@H](CCc2cc(F)c(C(F)(F)F)c(F)c2)NC(=O)CN(C)C(=O)[C@H](Cc2ccc(C(F)(F)F)cc2)N2CC/C=C\C[C@@H](C2=O)N(C)C(=O)CN(C)C1=O [PP1684]	A (a compound having 10 or more and less than 20 is denoted as A)	A (a compound having 10 or more and less than 20 is denoted as A)
